# Source: US8192962B2, “Processes for detecting toxic substances” (Daikin Industries, Ltd., priority 2001, dated 2012)
# Test system: Genes belonging to other category
# Experiment: DNA chip mRNA expression in yeast, genes belonging to other category (Table 9)
# Assay type: cell-based, Saccharomyces cerevisiae S288C
# Experimental: Yeast (Saccharomyces cerevisiae S288C (α SUC2mal mel gap2 CUP1)) were incubated at 25° C. on YPD medium (yeast extract 1%, polypepton 2%, glucose 2%). One of toxic chemical substances was added to the cells at logarithmic growth phase, and the cells were further incubated for two hours. Cells were cultured without any chemical substance in the same condition, and were used as control. Concentrations of the chemical substances were defined to inhibit the growth of the yeast but not lead to death.
# After completion of the incubation, the culture was centrifuged to collect the cells. To the cells, sodium acetate buffer (50 mM sodium acetate, 10 mM EDTA, 1% SDS) was added, and the mixture was shaken at 65° C. for five minutes, followed by returning to room temperature, and obtaining the supernatant, of which the procedures were repeated two times. To the supernatant, ½ amount of a solution of phenol/chloroform was added, and the mixture was centrifuged to give a supernatant, which was added with an equal amount of chloroform, and the mixture was centrifuged to give a supernatant. To the supernatant, an equal amount of isopropanol containing 0.3 M sodium acetate was added, and the mixture was allowed to stand at room temperature for 30 minutes, after which the mixture was centrifuged to give a sediment of the whole RNAs. Seventy % ethanol was added to the sediment, and the mixture was again centrifuged to give a sediment, which was then dried and dissolved in water. mRNA was isolated from the whole RNAs as followings. In view of the fact that a poly A chain is attached to the 3′ terminus of mRNA, a polynucleotide having a poly T structure which was immobilized on the surface of latex beads was used to trap the mRNA, and then the mRNA was washed and eluted with spine column (Oligotex-dT30<Super>mRNA Purification Kit, Takara). Reverse transcription of the mRNA was conducted with a reverse transcriptase (Super Script II Reverse Transcriptase; catalogue No. 18064-014, GibcoBRL) using fluorescence-labeled nucleotides to give cDNAs that were introduced with Cy3-dUTP or Cy5-dUTP during the reverse transcription.
# The labeled cDNAs were dissolved in TE buffer (10mM Tris-HCl/1 mM EDTA, pH8.0), and the solution was dropped on the DNA chip containing the whole genes of yeast (DNA Chip Research Inc. Japan) so that the cDNAs were hybridized on the DNA chip at 65° C. for over 12 hours. The fluoresces intensity of the DNA chip was read with a scanner, and the ratio relative to the fluorescence intensity resulting from the absence of chemical substance was estimated as the following, which is shown in Tables 1 to 9: […]
structure (smiles),measurement,setting,value
"[Cl][Cd][Cl] [(2), CdCl2]",The level of expressed mRNA in the presence of chemical substance/The level of expressed mRNA in the absence of chemical substance,yeast gene YAR010C,1.2
same,The level of expressed mRNA in the presence of chemical substance/The level of expressed mRNA in the absence of chemical substance,yeast gene YBL005W-A,0.9
same,The level of expressed mRNA in the presence of chemical substance/The level of expressed mRNA in the absence of chemical substance,yeast gene YBL041W,1.4
same,The level of expressed mRNA in the presence of chemical substance/The level of expressed mRNA in the absence of chemical substance,yeast gene YBL043W,1.2
same,The level of expressed mRNA in the presence of chemical substance/The level of expressed mRNA in the absence of chemical substance,yeast gene YBL078C,2.7
same,The level of expressed mRNA in the presence of chemical substance/The level of expressed mRNA in the absence of chemical substance,yeast gene YBR214W,2.1
same,The level of expressed mRNA in the presence of chemical substance/The level of expressed mRNA in the absence of chemical substance,yeast gene YCL020W,2.5
same,The level of expressed mRNA in the presence of chemical substance/The level of expressed mRNA in the absence of chemical substance,yeast gene YCL027W,2.0
same,The level of expressed mRNA in the presence of chemical substance/The level of expressed mRNA in the absence of chemical substance,yeast gene YCR004C,1.0
same,The level of expressed mRNA in the presence of chemical substance/The level of expressed mRNA in the absence of chemical substance,yeast gene YCR071C,0.7
same,The level of expressed mRNA in the presence of chemical substance/The level of expressed mRNA in the absence of chemical substance,yeast gene YCR088W,1.1
same,The level of expressed mRNA in the presence of chemical substance/The level of expressed mRNA in the absence of chemical substance,yeast gene YDL008W,1.0
same,The level of expressed mRNA in the presence of chemical substance/The level of expressed mRNA in the absence of chemical substance,yeast gene YDL238C,1.0
same,The level of expressed mRNA in the presence of chemical substance/The level of expressed mRNA in the absence of chemical substance,yeast gene YDR055W,2.1
same,The level of expressed mRNA in the presence of chemical substance/The level of expressed mRNA in the absence of chemical substance,yeast gene YDR084C,0.9
same,The level of expressed mRNA in the presence of chemical substance/The level of expressed mRNA in the absence of chemical substance,yeast gene YDR085C,1.8
same,The level of expressed mRNA in the presence of chemical substance/The level of expressed mRNA in the absence of chemical substance,yeast gene YDR104C,1.1
same,The level of expressed mRNA in the presence of chemical substance/The level of expressed mRNA in the absence of chemical substance,yeast gene YDR115W,0.9
same,The level of expressed mRNA in the presence of chemical substance/The level of expressed mRNA in the absence of chemical substance,yeast gene YDR259C,1.0
same,The level of expressed mRNA in the presence of chemical substance/The level of expressed mRNA in the absence of chemical substance,yeast gene YDR315C,1.4
same,The level of expressed mRNA in the presence of chemical substance/The level of expressed mRNA in the absence of chemical substance,yeast gene YDR358W,1.1
same,The level of expressed mRNA in the presence of chemical substance/The level of expressed mRNA in the absence of chemical substance,yeast gene YDR388W,0.7
same,The level of expressed mRNA in the presence of chemical substance/The level of expressed mRNA in the absence of chemical substance,yeast gene YDR432W,0.8
same,The level of expressed mRNA in the presence of chemical substance/The level of expressed mRNA in the absence of chemical substance,yeast gene YDR481C,2.3
same,The level of expressed mRNA in the presence of chemical substance/The level of expressed mRNA in the absence of chemical substance,yeast gene YDR510W,1.3
same,The level of expressed mRNA in the presence of chemical substance/The level of expressed mRNA in the absence of chemical substance,yeast gene YEL042W,0.9
same,The level of expressed mRNA in the presence of chemical substance/The level of expressed mRNA in the absence of chemical substance,yeast gene YEL066W,2.9
same,The level of expressed mRNA in the presence of chemical substance/The level of expressed mRNA in the absence of chemical substance,yeast gene YER039C,1.2
same,The level of expressed mRNA in the presence of chemical substance/The level of expressed mRNA in the absence of chemical substance,yeast gene YER107C,0.5
same,The level of expressed mRNA in the presence of chemical substance/The level of expressed mRNA in the absence of chemical substance,yeast gene YER130C,1.6
same,The level of expressed mRNA in the presence of chemical substance/The level of expressed mRNA in the absence of chemical substance,yeast gene YFL022C,0.9
same,The level of expressed mRNA in the presence of chemical substance/The level of expressed mRNA in the absence of chemical substance,yeast gene YFL028C,1.1
same,The level of expressed mRNA in the presence of chemical substance/The level of expressed mRNA in the absence of chemical substance,yeast gene YFL043C,1.2
same,The level of expressed mRNA in the presence of chemical substance/The level of expressed mRNA in the absence of chemical substance,yeast gene YGL158W,2.8
same,The level of expressed mRNA in the presence of chemical substance/The level of expressed mRNA in the absence of chemical substance,yeast gene YGL229C,0.7
same,The level of expressed mRNA in the presence of chemical substance/The level of expressed mRNA in the absence of chemical substance,yeast gene YGR136W,1.2
same,The level of expressed mRNA in the presence of chemical substance/The level of expressed mRNA in the absence of chemical substance,yeast gene YGR189C,0.9
same,The level of expressed mRNA in the presence of chemical substance/The level of expressed mRNA in the absence of chemical substance,yeast gene YGR213C,2.9
same,The level of expressed mRNA in the presence of chemical substance/The level of expressed mRNA in the absence of chemical substance,yeast gene YGR257C,0.8
same,The level of expressed mRNA in the presence of chemical substance/The level of expressed mRNA in the absence of chemical substance,yeast gene YHR004C,1.1
same,The level of expressed mRNA in the presence of chemical substance/The level of expressed mRNA in the absence of chemical substance,yeast gene YHR071W,1.1
same,The level of expressed mRNA in the presence of chemical substance/The level of expressed mRNA in the absence of chemical substance,yeast gene YHR139C,4.6
same,The level of expressed mRNA in the presence of chemical substance/The level of expressed mRNA in the absence of chemical substance,yeast gene YHR142W,0.8
same,The level of expressed mRNA in the presence of chemical substance/The level of expressed mRNA in the absence of chemical substance,yeast gene YIL123W,0.5
same,The level of expressed mRNA in the presence of chemical substance/The level of expressed mRNA in the absence of chemical substance,yeast gene YIL140W,1.0
same,The level of expressed mRNA in the presence of chemical substance/The level of expressed mRNA in the absence of chemical substance,yeast gene YJL073W,0.8
same,The level of expressed mRNA in the presence of chemical substance/The level of expressed mRNA in the absence of chemical substance,yeast gene YJL089W,1.5
same,The level of expressed mRNA in the presence of chemical substance/The level of expressed mRNA in the absence of chemical substance,yeast gene YJL116C,1.8
same,The level of expressed mRNA in the presence of chemical substance/The level of expressed mRNA in the absence of chemical substance,yeast gene YJR004C,0.8
same,The level of expressed mRNA in the presence of chemical substance/The level of expressed mRNA in the absence of chemical substance,yeast gene YJR086W,1.1
